This passage reports IC50 results from PMC9862588, “The Bi-Functional Paxilline Enriched in Skin Secretion of Tree Frogs (Hyla japonica) Targets the KCNK18 and BKCa Channels” (Toxins, 2023).

In general, IC50 refers to the concentration that inhibits the measured activity by half. Read a high IC50 as weaker potency.

For the experiment, the target named is T1, KCNK18 (Rattus norvegicus, UniProt Q6Q1P3).
T1 sequence (Q6Q1P3 1-405): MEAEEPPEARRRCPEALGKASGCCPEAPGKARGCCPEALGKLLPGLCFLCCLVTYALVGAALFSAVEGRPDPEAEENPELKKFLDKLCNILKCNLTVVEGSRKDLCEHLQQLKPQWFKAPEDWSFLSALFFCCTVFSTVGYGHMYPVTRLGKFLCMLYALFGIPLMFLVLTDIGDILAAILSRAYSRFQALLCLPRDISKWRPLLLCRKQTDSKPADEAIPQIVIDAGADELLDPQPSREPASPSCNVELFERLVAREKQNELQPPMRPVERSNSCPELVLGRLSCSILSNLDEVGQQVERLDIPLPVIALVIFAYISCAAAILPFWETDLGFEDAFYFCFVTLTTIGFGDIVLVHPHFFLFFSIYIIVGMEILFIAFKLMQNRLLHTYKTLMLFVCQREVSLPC
As to the kind of experiment: whole-cell patch clamp of transfected HEK293 cells, dose-response; loss of effect on F375 swap and F167A. The experiment is classed as cell-based. (In general: In patch-clamp work, channel activity is measured electrically.)

For `CC(C)(O)[C@H]1O[C@H]2CC[C@@]3(C)[C@@](O)(CC[C@H]4Cc5c([nH]c6ccccc56)[C@@]43C)C2=CC1=O` [PAX, Paxilline], the midpoint of inhibition, the IC50, lay at 4.13 ± 0.04 µM.
